The results in this text go back to publication PMC6140548 (Oncoimmunology, 2018).

In this assay the target is HLA-A02:01 (MHC-I) on the surface of TAP-deficient T2 cells (Homo sapiens, UniProt P04439, D140Y/D185E/D98H/E176V/E277Q/G131W/G231S/I119V/I121R/I166T/I218V/L300P/L318F/N151K/N90K/P208A/P217A/Q86G/Q94H/R138H/R169H/T345S). As to the kind of experiment: Peptide binding assay using TAP deficient T2 cells. The class given is cell-based. The following applies: PAX7-encoded 9-mer; statement of the discussion.

With GLVSSISRV, the “affinity for HLA-A02:01 (in words)” value is given as “very high affinity”.
